The record followed here is US8969312B2, “Low side effect pharmaceutical composition containing antituberculosis drugs” (priority 2011, dated 2015).

Data set [1] concerns amidase. Put plainly: Mouse liver microsomal amidase, isoniazid to isonicotinic acid. The class given is biochemical. An excerpt:
Mouse liver microsomes were used as the source of amidase, and isoniazid was used as the amidase metabolism drugs. quantitative isoniazid was catalyzed into metabolites isonicotinic acid (INA) by amidase, and was used as the index for measurement of the amidase activity for establishment of the platform for screening in vitro amidase activity inhibitors. The HPLC system includes a Shimadzu the LC-LOAD pump, 1 Shimadzu system control and a Shimadzu autosampler (Shimadzu Scientific Instrument, Japan). A C18 column (particle size 5 μm, inner diameter of 50×4.6 mm, 25 cm) containing 70% methanol and 30% ammonium formate (50 mM, pH=2.5) of the mobile phase for HPLC separation, and the experimental steps are outlined as follows:
(2) An aliquot of 150 μL mouse liver microsomal solution was added to 100 μL isoniazid solution in 35 μL 67 mM potassium phosphate buffer solution ([…], pH=7) with a final concentration at 3 mM, and then mixed thoroughly with 15 μL amidase inhibitor (deionized water was added in the control group). (3) Incubation at 37° C. water bath for 30 minutes. (4) An aliquot of 300 μL acetonitrile (ACN) was added and mixed thoroughly, and incubated for 6 minutes. (5) An aliquot of 30 μL perchloric acid was then mixed and incubated for 6 minutes. (6) The mixture was centrifuged at 13000 g for 6 minutes. (7) After centrifugation, 100 μL of the supernatant was injected into HPLC. (8) Methanol ammonium formate (50 mM, pH=2.5)=70:30 (V/V) was selected as the mobile phase, and the flow rate was controlled at […] and detected at 270 nm UV. […] The amidase inhibition % was then calculated using the following formula: […]
For orientation: Liver microsomes are vesicles of endoplasmic reticulum, rich in cytochrome P450 enzymes.

The target of data set [2] is human liver microsomal cytochrome P450 2E1 (CYP2E1) (Homo sapiens, UniProt P05181). Nature of the data set: Human liver microsomal CYP2E1, chlorzoxazone 6-hydroxylation.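 Also: chlorzoxazone added as substrate, 6-hydroxychlorzoxazone formation quantified by LC/MS/MS after 30 min at 37 °C with NADP+ regenerating system, compared against solvent control without test sample.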
human liver microsomal cytochrome P450 2E1 (CYP2E1), sequence (P05181 whole entry): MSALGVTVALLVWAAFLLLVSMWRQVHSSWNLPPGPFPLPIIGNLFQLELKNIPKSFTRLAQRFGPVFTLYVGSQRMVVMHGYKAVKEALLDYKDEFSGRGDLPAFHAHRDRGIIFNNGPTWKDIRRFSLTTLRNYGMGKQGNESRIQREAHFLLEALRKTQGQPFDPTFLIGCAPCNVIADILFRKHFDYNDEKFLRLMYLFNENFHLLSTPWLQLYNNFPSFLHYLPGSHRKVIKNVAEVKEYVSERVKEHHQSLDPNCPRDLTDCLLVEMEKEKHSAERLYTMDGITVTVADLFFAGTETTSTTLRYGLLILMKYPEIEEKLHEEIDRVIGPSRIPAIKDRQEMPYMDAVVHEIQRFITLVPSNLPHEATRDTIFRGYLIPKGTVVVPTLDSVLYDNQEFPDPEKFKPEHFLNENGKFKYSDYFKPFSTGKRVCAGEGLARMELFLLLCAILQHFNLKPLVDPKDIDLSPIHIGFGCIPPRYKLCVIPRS
[3] abbreviates: Table 6, minimum tested concentration (mg/L) × volume of human liver and intestine (3 L).

For the molecule `O=c1cc(-c2ccccc2)oc2c1ccc1ccccc12` [α-Naphthoflavone], the figures for the Amidase inhibition in data set [1] (1 uM), in data set [1] (10 uM) and in data set [1] (100 uM) were 7.3 ± 7.9%, 19.3 ± 3.7% and 36.9 ± 2.7%, respectively.

In the case of `COc1cc(C2Oc3cc([C@H]4Oc5cc(O)cc(O)c5C(=O)[C@@H]4O)ccc3OC2CO)ccc1O` (stereo partly shown) [Silybin], the “Minimum Effective Dose” value in data set [2] (setting [3]) was 26 mg.

Consider `COc1cc(-c2cc(=O)c3c(O)cc(O)cc3o2)ccc1O` [Chrysoeriol], for which the Amidase inhibition in data set [1] (1 uM) is listed as 7.7 ± 7.1%; in data set [1] (10 uM), 24.9 ± 11.2%; in data set [1] (100 uM), 23.2 ± 1.2%.

As to `O=c1c(O)c(-c2ccc(O)c(O)c2)oc2cc(O)ccc12` [Fisetin], the figures for the Amidase inhibition in data set [1] (1 uM), in data set [1] (10 uM) and in data set [1] (100 uM) were −9.2 ± 2.5%, 38.3 ± 2.0% and 56.4 ± 2.9%, respectively.

Take `CC12CCC(CC1)C(C)(C)O2` [Cineole]: the Amidase inhibition in data set [1] (1 uM) is given as −16.5 ± 17.5%; in data set [1] (10 uM), −4.7 ± 4.9%; in data set [1] (100 uM), 22.9 ± 10.4%.

Turning to `COc1ccc(-c2cc(=O)c3c(OC)c(OC)c(OC)cc3o2)cc1OC` [Sinensetin], the Amidase inhibition in data set [1] (1 uM) was −0.8 ± 3.0%; in data set [1] (10 uM), 6.6 ± 0.5%; in data set [1] (100 uM) it was 9.7 ± 0.9%.

For `Oc1cc(O)c2c(c1)O[C@@H](c1ccc(O)c(O)c1)[C@@H](O)C2` [(+)-Epicatechin], the “Inhibition of CYP 2E1” value amounted to 66.71 ± 1.79% in data set [2] (16.5 μM) and 52.32 ± 1.59% in data set [2] (33 μM). In addition, the “Minimum Effective Dose” value in data set [2] (setting [3]) is given as 16 mg.

As to `C[C@@H]1O[C@@H](Oc2c(-c3ccc(O)c(O)c3)oc3cc(O)cc(O)c3c2=O)[C@H](O)[C@H](O)[C@H]1O` [Quercitrin], in data set [2] (setting [3]), the “Minimum Effective Dose” value was found to be 24 mg.

`O=c1c(O[C@@H]2O[C@H](CO)[C@H](O)[C@H](O)[C@H]2O)c(-c2ccc(O)c(O)c2)oc2cc(O)cc(O)c12` [Hyperoside]: the “Minimum Effective Dose” value in data set [2] (setting [3]) came out at 25 mg.

In the case of `COc1cc(/C=C/C(=O)CC(=O)/C=C/c2ccc(O)c(OC)c2)ccc1O` [Curcumin], the Amidase inhibition was 16.9 ± 11.0% in data set [1] (1 uM), 16.1 ± 0.4% in data set [1] (10 uM) and 9.7 ± 6.0% in data set [1] (100 uM).

Take `O=c1cc(-c2ccc(O)cc2)oc2c([C@@H]3O[C@H](CO)[C@@H](O)[C@H](O)[C@H]3O)c(O)cc(O)c12` [Vitexin]: in data set [2] (setting [3]), the “Minimum Effective Dose” value turned out to be 24 mg.

On to `COc1ccc([C@@H]2CC(=O)c3c(O)cc(O[C@@H]4O[C@H](CO)[C@@H](O)[C@H](O)[C@H]4O[C@@H]4O[C@@H](C)[C@H](O)[C@@H](O)[C@H]4O)cc3O2)cc1O` [Neohesperidin], for which the “Inhibition of CYP 2E1” value in data set [2] (16.5 μM) amounted to 42.81 ± 1.75%; in data set [2] (33 μM), 48.96 ± 2.37%; in data set [2] (66 μM), 58.70 ± 1.06%. Moreover, the “Minimum Effective Dose” value in data set [2] (setting [3]) is given as 33 mg.

In the case of `CCCCCCCCCCCCCC(=O)OCC` [Ethyl Myristate], the “Minimum Effective Dose” value in data set [2] (setting [3]) is recorded as 14 mg.

Regarding `C[C@@H]1O[C@@H](OC[C@H]2O[C@@H](Oc3c(-c4ccc(O)c(O)c4)oc4cc(O)cc(O)c4c3=O)[C@H](O)[C@@H](O)[C@@H]2O)[C@H](O)[C@H](O)[C@H]1O` [Rutin], the “Minimum Effective Dose” value in data set [2] (setting [3]) amounted to 33 mg.

Consider `O=[N+]([O-])c1ccc(OP(=O)(O)Oc2ccc([N+](=O)[O-])cc2)cc1` [BNPP, bis-p-nitrophenyl phosphate, reference compound], for which the Amidase inhibition in data set [1] (positive control, own concentration not given) turned out to be 92.1 ± 8.7%.

As for `O=S(=O)([O-])NC1CCCCC1.[Na+]` [Sodium cyclamate], the “Inhibition of CYP 2E1” value was found to be 9.4 ± 2.7% in data set [2] (16.5 μM), 1.7 ± 4.7% in data set [2] (33 μM) and 9.1 ± 2.6% in data set [2] (66 μM).

Take `CC(C)[C@@H](C)/C=C/[C@@H](C)[C@H]1CC[C@H]2C3=CC=C4C[C@@H](O)CC[C@]4(C)[C@H]3CC[C@]12C` [Ergosterol]: the Amidase inhibition in data set [1] (1 uM) was 4.3 ± 10.7%; in data set [1] (10 uM) it was −0.4 ± 10.7%; in data set [1] (100 uM) it was 0.4 ± 3.6%.

On to `CC1(C)[C@@H](O[C@H]2O[C@H](C(=O)O)[C@@H](O)[C@H](O)[C@H]2O[C@@H]2O[C@H](C(=O)O)[C@@H](O)[C@H](O)[C@H]2O)CC[C@]2(C)[C@H]3C(=O)C=C4[C@@H]5C[C@@](C)(C(=O)O)CC[C@]5(C)CC[C@@]4(C)[C@]3(C)CC[C@@H]12` [Glycyrrhizin], for which the results for the Amidase inhibition in data set [1] (1 uM), in data set [1] (10 uM) and in data set [1] (100 uM) were −1.3 ± 3.1%, 4.3 ± 11.3% and 24.4 ± 12.7%, respectively.

For the molecule `O=c1c(-c2ccc(O)cc2)coc2cc(O[C@@H]3O[C@H](CO)[C@@H](O)[C@H](O)[C@H]3O)ccc12` [Daidzin], the results for the Amidase inhibition in data set [1] (1 uM), in data set [1] (10 uM) and in data set [1] (100 uM) were 3.6 ± 3.0%, 1.1 ± 5.4% and 7.4 ± 6.3%, respectively.

Consider `O=C(O[C@@H]1Cc2c(O)cc(O)cc2O[C@@H]1c1cc(O)c(O)c(O)c1)c1cc(O)c(O)c(O)c1` [(−)-Epigallocetechin-3-gallate], for which the “Inhibition of CYP 2E1” value in data set [2] (16.5 μM) was 50.19 ± 1.89%; in data set [2] (33 μM) it was 60.53 ± 2.06%; in data set [2] (66 μM), 72.16 ± 1.02%.

Turning to `COc1ccc(-c2cc(=O)c3c(O)c(OC)c(OC)cc3o2)cc1O` [Eupatorin], the Amidase inhibition in data set [1] (1 uM) is recorded as 0.9 ± 2.8%; in data set [1] (10 uM), 7.5 ± 0.7%; in data set [1] (100 uM), 12.0 ± 7.4%.

In the case of `O=C1C[C@@H](c2ccc(O[C@@H]3O[C@H](CO)[C@@H](O)[C@H](O)[C@H]3O)cc2)Oc2cc(O)ccc21` [Liquiritin], the Amidase inhibition in data set [1] (1 uM) is 2.5 ± 2.9%; in data set [1] (10 uM), −7.5 ± 13.4%; in data set [1] (100 uM), 12.5 ± 8.3%.

On to `COc1ccc(O)c(C(C)(C)C)c1` [Butylated hydroxyl anisol], for which the “Inhibition of CYP 2E1” value in data set [2] (16.5 μM) is on record as −16.8 ± 0.5%; in data set [2] (33 μM), −47.1 ± 5.1%; in data set [2] (66 μM) it was −85.5 ± 3.9%. The “Minimum Effective Dose” value in data set [2] (Table 7) is listed as 9 mg.

With `COc1ccc(-c2cc(=O)c3c(O)cc(O)c(-c4cc(-c5cc(=O)c6c(O)cc(OC)cc6o5)ccc4OC)c3o2)cc1` [Sciadopitysin], the results for the Amidase inhibition in data set [1] (1 uM), in data set [1] (10 uM) and in data set [1] (100 uM) were 10.3 ± 3.8%, 20.7 ± 6.0% and 20.6 ± 19.3%, respectively.

With `O=c1cc(-c2ccc(O)c(O)c2)oc2cc(O)c([C@@H]3O[C@H](CO)[C@@H](O)[C@H](O)[C@H]3O)c(O)c12` [Homoorientin], the figures for the Amidase inhibition in data set [1] (1 uM), in data set [1] (10 uM) and in data set [1] (100 uM) were 7.4 ± 3.8%, 3.5 ± 0.9% and 18.0 ± 2.6%, respectively.

For `COc1ccc([C@@H]2CC(=O)c3c(O)cc(O[C@@H]4O[C@H](CO)[C@@H](O)[C@H](O)[C@H]4O[C@@H]4O[C@@H](C)[C@H](O)[C@@H](O)[C@H]4O)cc3O2)cc1` [Poncirin], the Amidase inhibition turned out to be 10.8 ± 3.8% in data set [1] (1 uM), 8.1 ± 11.7% in data set [1] (10 uM) and 17.3 ± 5.8% in data set [1] (100 uM).

In the case of `O=C([O-])c1ccccc1.[Na+]` [Sodium benzoate], the “Inhibition of CYP 2E1” value turned out to be 7.8 ± 4.1% in data set [2] (0.08% (w/v)), 15.8 ± 0.9% in data set [2] (0.167% (w/v)) and 7.1 ± 2.0% in data set [2] ([…] (w/v)). The “Minimum Effective Dose” value in data set [2] (Table 7) amounted to 9 mg.

As for `CCCCCCCCCCCCO` [Lauryl Alcohol], the Amidase inhibition is given as 2.2 ± 3.1% in data set [1] (1 uM), −0.7 ± 1.5% in data set [1] (10 uM) and 4.1 ± 4.3% in data set [1] (100 uM).

Turning to `CC1(C)CC[C@]2(C(=O)O)CC[C@]3(C)C(=CC[C@@H]4[C@@]5(C)CC[C@H](O)C(C)(C)[C@@H]5CC[C@]43C)[C@@H]2C1` [Oleanolic Acid], the Amidase inhibition is 20.3 ± 5.2% in data set [1] (1 uM), 14.8 ± 3.4% in data set [1] (10 uM) and 24.5 ± 4.0% in data set [1] (100 uM).

Take `C[C@@H]1O[C@@H](OC[C@H]2O[C@@H](Oc3cc(O)c4c(c3)O[C@H](c3ccc(O)c(O)c3)CC4=O)[C@H](O)[C@@H](O)[C@@H]2O)[C@H](O)[C@H](O)[C@H]1O` [Eriocitrin]: the Amidase inhibition in data set [1] (1 uM) is on record as −16.1 ± 12.8%; in data set [1] (10 uM), 19.0 ± 3.0%; in data set [1] (100 uM), 32.8 ± 1.9%.

Turning to `O=C(/C=C/c1ccc(O)cc1)c1ccc(O)cc1O` [Isoliquritigenin], the Amidase inhibition in data set [1] (1 uM) was −18.7 ± 26.0%; in data set [1] (10 uM), 17.7 ± 8.3%; in data set [1] (100 uM), 57.2 ± 8.5%.

As to `O=C1C[C@@H](c2ccc(O)c(O)c2)Oc2cc(O)cc(O)c21` [Eriodictyol], the Amidase inhibition in data set [1] (1 uM) is reported as 9.0 ± 4.7%; in data set [1] (10 uM) it was 6.5 ± 11.3%; in data set [1] (100 uM) it was 22.3 ± 4.7%.

Regarding `O=c1c(O)c(-c2ccccc2)oc2cc(O)cc(O)c12` [Galangin], the Amidase inhibition in data set [1] (1 uM) amounted to 9.6 ± 9.9%; in data set [1] (10 uM), 32.8 ± 4.4%; in data set [1] (100 uM) it was 61.5 ± 2.7%.
